These results are taken from PMC3265359 (Biochemical Journal, 2010).

As usually defined, the IC50 is the concentration at which inhibition is half-maximal. As a reminder, the Ki is a measure of affinity in units of concentration, obtained from inhibition or displacement.

The target of data set [1] is T1, COX-1 (Ovis aries, UniProt P05979).
T1 sequence (P05979 25-600): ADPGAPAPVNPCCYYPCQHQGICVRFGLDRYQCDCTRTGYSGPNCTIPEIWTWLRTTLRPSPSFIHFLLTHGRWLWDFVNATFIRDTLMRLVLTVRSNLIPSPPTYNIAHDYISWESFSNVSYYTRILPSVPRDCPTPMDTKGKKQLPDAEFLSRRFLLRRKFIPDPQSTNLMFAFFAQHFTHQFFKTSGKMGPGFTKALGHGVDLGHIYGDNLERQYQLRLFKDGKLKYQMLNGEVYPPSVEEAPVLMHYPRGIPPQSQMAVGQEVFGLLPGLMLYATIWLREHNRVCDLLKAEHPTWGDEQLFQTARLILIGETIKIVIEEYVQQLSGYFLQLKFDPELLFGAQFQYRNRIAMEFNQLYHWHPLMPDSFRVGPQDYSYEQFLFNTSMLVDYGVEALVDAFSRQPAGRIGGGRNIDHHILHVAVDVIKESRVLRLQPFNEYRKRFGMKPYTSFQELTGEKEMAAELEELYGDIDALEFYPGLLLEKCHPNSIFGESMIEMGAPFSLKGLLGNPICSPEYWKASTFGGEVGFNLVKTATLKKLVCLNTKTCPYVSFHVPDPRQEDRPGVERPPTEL
As to the kind of experiment: Inhibition of COX-1 activity by quantification of PGE2. It is filed as biochemical.

For data set [2], the target named is T2, QR2 (Homo sapiens, UniProt P16083).
T2 sequence (P16083 1-231): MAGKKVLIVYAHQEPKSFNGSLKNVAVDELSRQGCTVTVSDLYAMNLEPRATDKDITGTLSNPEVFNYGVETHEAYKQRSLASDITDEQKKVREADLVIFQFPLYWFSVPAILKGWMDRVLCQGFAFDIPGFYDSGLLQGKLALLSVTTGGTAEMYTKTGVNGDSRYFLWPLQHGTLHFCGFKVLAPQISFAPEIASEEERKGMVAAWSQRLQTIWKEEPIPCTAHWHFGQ
Nature of the data set: QR2 steady-state kinetics. Type of data set: biochemical. To be noted: for Ki: read-out: QR2 Ki, Table 1 value; for Inhibition of QR2: up to 100 μM compound, 5 nM QR2, 100 μM NMeH, 30 μM menadione.

For data set [3], the target named is T3, COX-2 (Homo sapiens, UniProt P35354).
T3 sequence (P35354 18-604): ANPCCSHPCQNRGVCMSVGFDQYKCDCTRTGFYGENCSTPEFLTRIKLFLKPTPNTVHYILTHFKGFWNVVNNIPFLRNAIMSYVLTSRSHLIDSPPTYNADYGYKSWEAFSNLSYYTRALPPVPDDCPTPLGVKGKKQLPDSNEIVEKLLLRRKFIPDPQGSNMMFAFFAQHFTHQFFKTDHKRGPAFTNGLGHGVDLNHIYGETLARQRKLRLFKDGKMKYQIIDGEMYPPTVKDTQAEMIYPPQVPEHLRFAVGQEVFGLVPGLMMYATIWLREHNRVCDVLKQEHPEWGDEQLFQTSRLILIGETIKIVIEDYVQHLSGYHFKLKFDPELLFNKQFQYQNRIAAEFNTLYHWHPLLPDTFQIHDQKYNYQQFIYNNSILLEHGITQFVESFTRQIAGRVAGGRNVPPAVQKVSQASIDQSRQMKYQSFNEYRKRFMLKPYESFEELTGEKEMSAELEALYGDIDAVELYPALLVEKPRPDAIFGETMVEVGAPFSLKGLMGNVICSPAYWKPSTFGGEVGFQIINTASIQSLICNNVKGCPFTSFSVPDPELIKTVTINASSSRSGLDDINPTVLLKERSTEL
As to the kind of experiment: Inhibition of COX-2 activity by quantification of PGE2. Type of data set: biochemical.

For data set [4], the target named is T2, QR2. Nature of the data set: ITC titration of resveratrol into QR2. Type of data set: binding.
Data set [5] deals with QR1. Nature of the data set: Effect of resveratrol on QR1 activity in Hepa 1c1c7 cells. The settings on record: Hepa 1c1c7 mouse hepatoma cells, 48 h. It is filed as cell-based.
Data set [6] addresses T4, SIRT1 (Homo sapiens, UniProt Q96EB6).
T4 sequence (Q96EB6 1-747): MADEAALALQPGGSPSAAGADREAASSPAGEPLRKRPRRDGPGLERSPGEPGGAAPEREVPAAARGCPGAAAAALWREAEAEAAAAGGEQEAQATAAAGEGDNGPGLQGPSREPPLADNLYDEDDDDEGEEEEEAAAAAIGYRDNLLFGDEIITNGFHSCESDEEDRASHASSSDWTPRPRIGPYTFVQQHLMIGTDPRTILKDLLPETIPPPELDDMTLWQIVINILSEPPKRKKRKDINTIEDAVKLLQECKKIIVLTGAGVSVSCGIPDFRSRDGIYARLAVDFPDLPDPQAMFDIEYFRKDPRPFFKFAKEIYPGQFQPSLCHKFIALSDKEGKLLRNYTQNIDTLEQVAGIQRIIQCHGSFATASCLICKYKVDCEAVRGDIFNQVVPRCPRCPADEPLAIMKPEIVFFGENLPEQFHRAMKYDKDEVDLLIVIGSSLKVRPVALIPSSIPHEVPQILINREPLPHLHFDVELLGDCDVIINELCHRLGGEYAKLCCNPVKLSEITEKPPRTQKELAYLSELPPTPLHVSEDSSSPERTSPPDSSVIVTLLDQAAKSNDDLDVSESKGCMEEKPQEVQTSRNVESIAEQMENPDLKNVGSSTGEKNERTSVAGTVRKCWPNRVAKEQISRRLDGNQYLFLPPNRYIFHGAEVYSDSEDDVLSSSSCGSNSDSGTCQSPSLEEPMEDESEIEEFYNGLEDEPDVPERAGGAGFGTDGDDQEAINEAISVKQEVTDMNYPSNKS
Nature of the data set: ITC titration of resveratrol into SIRT1. The settings on record: 20 μM SIRT1, no substrates. It is filed as binding. A general note: In ITC the heat of successive injections is recorded.

For data set [7] the following is noted: after an oral dose of pure resveratrol; cited from earlier work.

SMILES strings stand for the structures. Like-named read-outs stand apart in the source and are kept apart here.

In data set [1], `O=S(=O)(O)Oc1cc(O)cc(C=Cc2ccc(O)cc2)c1` [Resveratrol-3-O-sulfate, resveratrol-3-O-sulfate] had an IC50 of 68 ± 2.8 µM. In data set [2], the Ki is above 100 µM and the “Inhibition of QR2” value is reported as “cannot detect any inhibitory activity”. For the same molecule, in data set [3], the IC50 is above 300 µM.
Regarding `Oc1ccc(/C=C/c2cc(O)cc(O)c2)cc1` [Resveratrol, 3,5, 4′-trans-trihydroxystilbene], the midpoint of inhibition in data set [1], the IC50, lay at 1.1 ± 0.44 µM. In addition, the “ΔH of binding to QR2” value in data set [4] was “–14 kcal/mol”. The “TΔS of binding to QR2” value in data set [4] (as printed in Figure 6 legend) is recorded as 3.9 kcal/mol. In data set [4] (single binding site model), the “N (ITC binding stoichiometry, QR2)” value came to 0.9. Besides, in data set [5], the “Effect on QR1 activity” value is given as “only a weak activator”. Also, the “QR2 Ki, uncompetitive against menadione” value in data set [2] (varied menadione, NMeH 100 μM) was determined as 0.9 ± 0.1 µM. The “Binding to SIRT1 by ITC” value in data set [6] was “no detectable change in heat”.
As for `O=S(=O)(O)Oc1ccc(C=Cc2cc(O)cc(O)c2)cc1` [Resveratrol-4′-O-sulfate, resveratrol-4′-O-sulfate], the IC50 in data set [1] is 5.1 ± 0.55 µM. Further, in data set [2], the Ki is above 100 µM and the “Inhibition of QR2” value is listed as “cannot detect any inhibitory activity”. In addition, the IC50 in data set [3] worked out at 2.5 ± 0.35 µM. The Human plasma concentration in data set [7] is 2 to 10 µM.
In the case of `O=C(O)[C@H]1O[C@@H](Oc2cc(O)cc(/C=C/c3ccc(O)cc3)c2)[C@H](O)[C@@H](O)[C@@H]1O` [Resveratrol-3-O-glucuronide, resveratrol-3-O-glucuronide], in data set [1] (read-out: COX-1 IC50, PGE2 produced from arachidonic acid), the IC50 was found to be 150 ± 5.8 µM.
